Each molecule was assayed on RS4;11-BCL-2 G101V cells (assay: Cell proliferation assay (MTS), RS4;11-BCL-2 G101V engineered cells). Conditions: Homo sapiens, 120 h, read-out: RS4, 11 BCL2-G101V IC50.
Format: cell-based
Description: MTS testing kit was purchased from Promega (Madison, WI, USA). The RPMI-1640, Fetal bovine serum and Penicillin-Streptomycin were purchased from BI (Biological Industries, Beit Haemek, Israel). Puromycin was purchased from Beyotime (shanghai, China). Dimethyl sulfoxide (DMSO) was purchased from Sigma (St. Louis., MO, USA). RS4;11-BCL-2 G101V (Cobioer Lot. #: CBD2021063013P4), RS4;11-BCL-2 D103E (Cobioer Lot. #: CBD2021063013P4), RS4;11-BCL-2 D103Y (Cobioer Lot. #: CBD2022012101P4) and RS4;11-BCL-2 F104L (Cobioer Lot. #: CBD2021063014P4) cells were cultured in RPMI1640 supplemented with 1 ug/mL puromycin, 100 U/mL Penicillin-Streptomycin and 10% FBS.
To investigate whether a compound is able to inhibit the activity of BCL-2 mutation in cells, a mechanism-based assay using engineered cell lines stably overexpressing BCL-2 mutation (RS4;11-BCL-2 G101V, RS4;11-BCL-2 D103E, RS4;11-BCL-2 D103Y, and RS4;11-BCL-2 F104L) was developed. In this assay, the inhibition of BCL-2 mutation was reflected by the inhibition of cell proliferation of engineered RS4;11 cells. Cells were plated into 96-well plates at optimized cell density (RS4;11-BCL-2 G101V: 5000 cells/well; RS4;11-BCL-2 D103E: 7500 cells/well; RS4;11-BCL-2 D103Y: 7500 cells/well; RS4;11-BCL-2 F104L: 5000 cells/well). Plates were incubated at 37° C., with 5% CO2 for 4 h (RS4;11-BCL-2 G101V, RS4;11-BCL-2 F104L) and 24 h (RS4;11-BCL-2 D103E, RS4;11-BCL-2 D103Y), respectively. Compounds were serially diluted and added to the plates with the final concentrations of 10000, 3333.3, 1111.1, 370.4, 123.5, 41.2, 13.7, 4.6 and 1.5 nM. Plates were incubated at 37° C., with 5% CO2 for 120 h (RS4; 11-BCL-2 G101V, RS4; 11-BCL-2 F104L) and 72 h (RS4;11-BCL-2 D103E, RS4;11-BCL-2 D103Y), respectively. 20 μl MTS was added into each well and the plates were incubated at 37° C., with 5% CO2 exactly for 2 h. The absorbance was measured by a microplate reader at 490 nm. IC50 values were calculated using GraphPad Prism 8.0 software.

IC50, 1 nM:
CC(C)c1ccccc1[C@@H]1CN(C2CC2)CCN1C1CC2(CCN(c3ccc(C(=O)NS(=O)(=O)c4cnc(NC[C@H]5CC[C@](C)(O)CC5)c([N+](=O)[O-])c4)c(Oc4cnc5[nH]cc(F)c5c4)c3)CC2)C1 [Example 145, 4-(2-((R)-4-cyclopropyl-2-(2-isopropylphenyl)piperazin-1-yl)-7-azaspiro[3.5]nonan-7-yl)-2-((3-fluoro-1H-pyrrolo[2,3-b]pyridin-5-yl)oxy)-N-((6-((((1r,4r)-4-hydroxy-4-methylcyclohexyl)methyl)amino)-5-nitropyridin-3-yl)sulfonyl)benzamide]
COc1nc2[nH]cc(F)c2cc1Oc1cc(N2CCC3(CC2)CC(N2CCN(CC4CCOCC4)C[C@H]2c2ccccc2C(C)C)C3)ccc1C(=O)NS(=O)(=O)c1cnc(NC[C@H]2CC[C@](C)(O)CC2)c([N+](=O)[O-])c1 [Example 317, 2-((3-fluoro-6-methoxy-1H-pyrrolo[2,3-b]pyridin-5-yl)oxy)-N-((6-((((1r,4r)-4-hydroxy-4-methylcyclohexyl)methyl)amino)-5-nitropyridin-3-yl)sulfonyl)-4-(2-((R)-2-(2-isopropylphenyl)-4-((tetrahydro-2H-pyran-4-yl)methyl)piperazin-1-yl)-7-azaspiro[3.5]nonan-7-yl)benzamide]
CC(C)c1ccccc1[C@@H]1CN(C2CCC(O)CC2)CCN1C1CC2(CCN(c3ccc(C(=O)NS(=O)(=O)c4cnc(NC[C@H]5CC[C@](C)(O)CC5)c([N+](=O)[O-])c4)c(Oc4cnc5[nH]cc(F)c5c4)c3)CC2)C1 (stereo partly drawn) [Example 333, 2-((3-fluoro-1H-pyrrolo[2,3-b]pyridin-5-yl)oxy)-N-((6-((((1r,4r)-4-hydroxy-4-methylcyclohexyl)methyl)amino)-5-nitropyridin-3-yl)sulfonyl)-4-(2-((R)-4-(4-hydroxycyclohexyl)-2-(2-isopropylphenyl)piperazin-1-yl)-7-azaspiro [3.5]nonan-7-yl)benzamide]
COc1ccc(CN2CCN(C3CC4(CCN(c5ccc(C(=O)NS(=O)(=O)c6cnc(NC[C@H]7CC[C@](C)(O)CC7)c([N+](=O)[O-])c6)c(Oc6cc7c(F)c[nH]c7nc6OC)c5)CC4)C3)[C@H](c3ccccc3C3CC3)C2)cc1 [Example 52, 4-(2-((R)-2-(2-cyclopropylphenyl)-4-(4-methoxybenzyl)piperazin-1-yl)-7-azaspiro[3.5]nonan-7-yl)-2-((3-fluoro-6-methoxy-1H-pyrrolo[2,3-b]pyridin-5-yl)oxy)-N-((6-((((1r,4r)-4-hydroxy-4-methylcyclohexyl)methyl)amino)-5-nitropyridin-3-yl)sulfonyl)benzamide]
COc1nc2[nH]cc(F)c2cc1Oc1cc(N2CCC3(CC2)CC(N2CCN(C4CCC(O)CC4)C[C@H]2c2ccccc2C(C)C)C3)ccc1C(=O)NS(=O)(=O)c1cnc(NC[C@H]2CC[C@](C)(O)CC2)c([N+](=O)[O-])c1 (single isomer, unassigned) [Example 332]
CCOc1nc2[nH]cc(F)c2cc1Oc1cc(N2CCC3(CC2)CC(N2CCN(Cc4ccc(OC)cc4F)C[C@H]2c2ccccc2C(C)C)C3)ccc1C(=O)NS(=O)(=O)c1cnc(NC[C@H]2CC[C@](C)(O)CC2)c([N+](=O)[O-])c1 [Example 106, 2-((6-ethoxy-3-fluoro-1H-pyrrolo[2,3-b]pyridin-5-yl)oxy)-4-(2-((R)-4-(2-fluoro-4-methoxybenzyl)-2-(2-isopropylphenyl)piperazin-1-yl)-7-azaspiro[3.5]nonan-7-yl)-N-((6-((((1r,4r)-4-hydroxy-4-methylcyclohexyl)methyl)amino)-5-nitropyridin-3-yl)sulfonyl)benzamide]
CC(C)c1ccccc1[C@@H]1CN(Cc2ccc3c(c2)OC(F)(F)O3)CCN1C1CC2(CCN(c3ccc(C(=O)NS(=O)(=O)c4cnc(NC[C@H]5CC[C@](C)(O)CC5)c([N+](=O)[O-])c4)c(Oc4cnc5[nH]cc(F)c5c4)c3)CC2)C1 [Example 352, 4-(2-((R)-4-((2,2-difluorobenzo[d][1,3]dioxol-5-yl)methyl)-2-(2-isopropylphenyl)piperazin-1-yl)-7-azaspiro[3.5]nonan-7-yl)-2-((3-fluoro-1H-pyrrolo [2,3-b]pyridin-5-yl)oxy)-N-((6-((((1r,4r)-4-hydroxy-4-methylcyclohexyl)methyl)amino)-5-nitropyridin-3-yl)sulfonyl)benzamide]
COc1nc2[nH]cc(F)c2cc1Oc1cc(N2CCC3(CC2)CC(N2CCN(C)C[C@H]2c2ccccc2C(C)C)C3)ccc1C(=O)NS(=O)(=O)c1cnc(NC[C@H]2CC[C@](C)(O)CC2)c([N+](=O)[O-])c1 [Example 137, 2-((3-fluoro-6-methoxy-1H-pyrrolo[2,3-b]pyridin-5-yl)oxy)-N-((6-((((1r,4r)-4-hydroxy-4-methylcyclohexyl)methyl)amino)-5-nitropyridin-3-yl)sulfonyl)-4-(2-((R)-2-(2-isopropylphenyl)-4-methylpiperazin-1-yl)-7-azaspiro[3.5]nonan-7-yl)benzamide]
COc1nc2[nH]cc(F)c2cc1Oc1cc(N2CCC3(CC2)CC(N2CCN(Cc4ccc(C#N)cc4)C[C@H]2c2ccccc2C(C)C)C3)ccc1C(=O)NS(=O)(=O)c1cnc(NC[C@H]2CC[C@](C)(O)CC2)c([N+](=O)[O-])c1 [Example 236, 4-(2-((R)-4-(4-cyanobenzyl)-2-(2-isopropylphenyl)piperazin-1-yl)-7-azaspiro[3.5]nonan-7-yl)-2-((3-fluoro-6-methoxy-1H-pyrrolo[2,3-b]pyridin-5-yl)oxy)-N-((6-((((1r,4r)-4-hydroxy-4-methylcyclohexyl)methyl)amino)-5-nitropyridin-3-yl)sulfonyl)benzamide]
COc1nc2[nH]cc(F)c2cc1Oc1cc(N2CCC3(CC2)CC(N2CCN(C4COC4)C[C@H]2c2ccccc2C(C)C)C3)ccc1C(=O)NS(=O)(=O)c1cnc(NC[C@H]2CC[C@](C)(O)CC2)c([N+](=O)[O-])c1 [Example 131, 2-((3-fluoro-6-methoxy-1H-pyrrolo[2,3-b]pyridin-5-yl)oxy)-N-((6-((((1r,4r)-4-hydroxy-4-methylcyclohexyl)methyl)amino)-5-nitropyridin-3-yl)sulfonyl)-4-(2-((R)-2-(2-isopropylphenyl)-4-(oxetan-3-yl)piperazin-1-yl)-7-azaspiro[3.5]nonan-7-yl)benzamide]
COc1ncc(CN2CCN(C3CC4(CCN(c5ccc(C(=O)NS(=O)(=O)c6cnc(NC[C@H]7CC[C@](C)(O)CC7)c([N+](=O)[O-])c6)c(Oc6cc7c(F)c[nH]c7nc6OC)c5)CC4)C3)[C@H](c3ccccc3C(C)C)C2)cn1 [Example 359, 2-((3-fluoro-6-methoxy-1H-pyrrolo[2,3-b]pyridin-5-yl)oxy)-N-((6-((((1r,4r)-4-hydroxy-4-methylcyclohexyl)methyl)amino)-5-nitropyridin-3-yl)sulfonyl)-4-(2-((R)-2-(2-isopropylphenyl)-4-((2-methoxypyrimidin-5-yl)methyl)piperazin-1-yl)-7-azaspiro[3.5]nonan-7-yl)benzamide]
COc1nc2[nH]cc(F)c2cc1Oc1cc(N2CCC3(CC2)CC(N2CCN(Cc4ccnc(N)c4)C[C@H]2c2ccccc2C(C)C)C3)ccc1C(=O)NS(=O)(=O)c1cnc(NC[C@H]2CC[C@](C)(O)CC2)c([N+](=O)[O-])c1 [Example 70, 4-(2-((R)-4-((2-aminopyridin-4-yl)methyl)-2-(2-isopropylphenyl)piperazin-1-yl)-7-azaspiro[3.5]nonan-7-yl)-2-((3-fluoro-6-methoxy-1H-pyrrolo[2,3-b]pyridin-5-yl)oxy)-N-((6-((((1r,4r)-4-hydroxy-4-methylcyclohexyl)methyl)amino)-5-nitropyridin-3-yl)sulfonyl)benzamide]
COc1nc2[nH]cc(F)c2cc1Oc1cc(N2CCC3(CC2)CC(N2CCN(C4CCOCC4)C[C@H]2c2ccccc2C(C)C)C3)ccc1C(=O)NS(=O)(=O)c1cnc(NC[C@H]2CC[C@](C)(O)CC2)c([N+](=O)[O-])c1 [Example 319, 2-((3-fluoro-6-methoxy-1H-pyrrolo[2,3-b]pyridin-5-yl)oxy)-N-((6-((((1r,4r)-4-hydroxy-4-methylcyclohexyl)methyl)amino)-5-nitropyridin-3-yl)sulfonyl)-4-(2-((R)-2-(2-isopropylphenyl)-4-(tetrahydro-2H-pyran-4-yl)piperazin-1-yl)-7-azaspiro[3.5]nonan-7-yl)benzamide]

— US20250122191A1, “COMPOUNDS AS BCL-2 INHIBITORS” (Fochon Biosciences, Ltd, priority 2021, published 2025)
